Laboratory results as given in patent publication US10981894B2, “Melanocortin subtype-2 receptor (MC2R) antagonists and uses thereof” (Crinetics Pharmaceuticals, Inc., priority 2018, dated 2021).

The compounds below were run against hMC2 receptor (Homo sapiens, UniProt Q01718) (assay: hMC2 membrane binding assay ([125I]ACTH (1-39) Tyr23, SPA)). Conditions: crude hMC2R membranes from CRE-bla-CHO-K1 cells expressing hMC2 receptor and hMRAP; [125I]ACTH (1-39) Tyr23 0.2 nM; 1.5 hours at room temperature; read-out: MC2R binding potency.
Set-up: scale not given here
Outline: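 CRE-bla-CHO-K1 membranes co-expressing hMC2 receptor and hMRAP, preincubated with WGA PVT SPA beads in pH 7.4 HEPES/MgCl2/CaCl2/0.2% BSA buffer. Compounds (typically 0–10,000 nM final) compete with 0.2 nM [125I]ACTH(1-39) Tyr23 for 1.5 h at room temperature. SPA counts give Ki by non-linear regression.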

Chain of hMC2 receptor (Q01718 whole entry): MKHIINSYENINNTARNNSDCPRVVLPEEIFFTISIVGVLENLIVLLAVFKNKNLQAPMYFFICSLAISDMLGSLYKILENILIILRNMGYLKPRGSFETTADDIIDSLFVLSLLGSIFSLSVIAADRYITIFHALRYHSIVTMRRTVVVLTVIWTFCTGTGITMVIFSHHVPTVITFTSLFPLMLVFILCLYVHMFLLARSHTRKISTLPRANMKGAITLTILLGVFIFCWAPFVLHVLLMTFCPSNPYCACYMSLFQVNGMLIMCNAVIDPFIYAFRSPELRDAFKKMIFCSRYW
Chain of hMC2 receptor (Q8TCY5 whole entry partner): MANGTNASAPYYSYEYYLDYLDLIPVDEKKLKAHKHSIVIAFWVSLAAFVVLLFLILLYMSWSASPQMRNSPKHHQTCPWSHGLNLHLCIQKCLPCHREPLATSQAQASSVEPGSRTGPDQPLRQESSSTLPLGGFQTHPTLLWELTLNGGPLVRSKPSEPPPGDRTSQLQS

Q: How did the Ki turn out when CCOc1ncccc1-c1ccc(N2CCN(C(=O)c3ccc(Cl)cc3C(F)(F)F)C[C@H]2CC)c(C(=O)N[C@@H]2CCN(C)C2)c1 [Compound 1-48, 2-[(2R)-4-[4-chloro-2-(trifluoromethyl)benzoyl]-2-ethylpiperazin-1-yl]-5-(2-ethoxypyridin-3-yl)-N-[(3R)-1-methylpyrrolidin-3-yl]benzamide] was run?
A: < 10 nM

Q: With CCOc1ncccc1-c1ccc(N2CCN(C(=O)c3ccc(OC)cc3C(F)(F)F)C[C@H]2CC)c(C(=O)N[C@@H]2CCNC2)c1 [Compound 1-143, 5-(2-ethoxypyridin-3-yl)-2-[(2R)-2-ethyl-4-[4-methoxy-2-(trifluoromethyl)benzoyl]piperazin-1-yl]-N-[(3R)-pyrrolidin-3-yl]benzamide] as the compound, how does the Ki read?
A: < 10 nM

Q: For CCOc1ncccc1-c1ccc(N2CCN(C(=O)c3ccc(Cl)cc3C(F)(F)F)C[C@H]2CC)c(C(=O)N[C@@H]2CCNC2)c1F [Compound 1-72, 6-[(2R)-4-[4-chloro-2-(trifluoromethyl)benzoyl]-2-ethylpiperazin-1-yl]-3-(2-ethoxypyridin-3-yl)-2-fluoro-N-[(3R)-pyrrolidin-3-yl]benzamide], which Ki is on record?
A: < 10 nM

Q: How did the Ki turn out when CCOc1ccccc1-c1ccc(N2CCN(C(=O)c3ccc(OC)nc3C(F)(F)F)C[C@H]2CC)c(C(=O)N[C@@H]2CCN(C)C2)n1 [Compound 1-253, 6-(2-ethoxyphenyl)-3-[(2R)-2-ethyl-4-[6-methoxy-2-(trifluoromethyl)pyridine-3-carbonyl]piperazin-1-yl]-N-[(3R)-1-methylpyrrolidin-3-yl]pyridine-2-carboxamide] was run?
A: < 10 nM

Q: CCOc1ccccc1-c1ccc(N2CCN(C(=O)c3ccc(Cl)cc3C(F)(F)F)C[C@H]2CC)c(C(=O)N[C@@H]2CCNC2)n1 [Compound 1-209, 3-[(2R)-4-[4-chloro-2-(trifluoromethyl)benzoyl]-2-ethylpiperazin-1-yl]-6-(2-ethoxyphenyl)-N-[(3R)-pyrrolidin-3-yl]pyridine-2-carboxamide] was tested. Which Ki did it give?
A: < 10 nM

Q: For CC[C@@H]1CN(C(=O)c2ccc(C(F)(F)F)cc2Cl)CCN1c1ccc(-c2ccccc2C)cc1C(=O)NCCN [Compound 1-8, N-(2-aminoethyl)-4-[(2R)-4-[2-chloro-4-(trifluoromethyl)benzoyl]-2-ethylpiperazin-1-yl]-2′-methyl-[1,1′-biphenyl]-3-carboxamide], which Ki is on record?
A: 10 to 100 nM

Q: CCOc1ncccc1-c1ccc(N2CCN(C(=O)c3ccc(Cl)cc3N(C)C)C[C@H]2CC)c(C(=O)N[C@@H]2CCNC2)c1 [Compound 1-91, 2-[(2R)-4-[4-chloro-2-(dimethylamino)benzoyl]-2-ethylpiperazin-1-yl]-5-(2-ethoxypyridin-3-yl)-N-[(3R)-pyrrolidin-3-yl]benzamide] was tested. Which Ki did it give?
A: < 10 nM

Q: With CCOc1ncccc1-c1ccc(N2CCN(C(=O)c3ccc(Cl)cc3C(F)(F)F)C[C@H]2CC)c(C(=O)NC[C@@H]2CCN2C)n1 [Compound 1-232, 5-[(2R)-4-[4-chloro-2-(trifluoromethyl)benzoyl]-2-ethylpiperazin-1-yl]-2′-ethoxy-N-{[(2S)-1-methylazetidin-2-yl]methyl}-[2,3′-bipyridine]-6-carboxamide] as the compound, how does the Ki read?
A: < 10 nM

Q: For CCOc1ncccc1-c1ccc(N2CCN(C(=O)c3ccc(Cl)cc3C(F)(F)F)C[C@H]2CC)c(CN)n1 [Compound 2-13, 1-{5-[(2R)-4-[4-chloro-2-(trifluoromethyl)benzoyl]-2-ethylpiperazin-1-yl]-2′-ethoxy-[2,3′-bipyridin]-6-yl}methanamine], which Ki is on record?
A: < 10 nM

Q: Which Ki does the source give for CCOc1ncccc1-c1ccc(N2CCN(C(=O)C34CCC(C(F)(F)F)(CC3)C4)C[C@H]2CC)c(C(=O)NCC2CN(C)C2)n1 [Compound 1-395, 2′-ethoxy-5-[(2R)-2-ethyl-4-[4-(trifluoromethyl)bicyclo[2.2.1]heptane-1-carbonyl]piperazin-1-yl]-N-[(1-methylazetidin-3-yl)methyl]-[2,3′-bipyridine]-6-carboxamide] here?
A: < 10 nM

Q: With CCOc1ncccc1-c1ccc(N2CCN(C(=O)C3CCc4cccc(Cl)c43)C[C@H]2CC)c(C(=O)N[C@@H]2CCN(C)C2)n1 (stereo partly drawn) [Compound 1-382, 5-[(2R)-4-(7-chloro-2,3-dihydro-1H-indene-1-carbonyl)-2-ethylpiperazin-1-yl]-2′-ethoxy-N-[(3R)-1-methylpyrrolidin-3-yl]-[2,3′-bipyridine]-6-carboxamide] as the compound, how does the Ki read?
A: < 10 nM

Q: CCOc1cnccc1-c1ccc(N2CCN(C(=O)c3ccc(C(F)(F)F)cc3Cl)C[C@H]2CC)c(C(=O)NCCN)c1 [Compound 1-33, N-(2-aminoethyl)-2-[(2R)-4-[2-chloro-4-(trifluoromethyl)benzoyl]-2-ethylpiperazin-1-yl]-5-(3-ethoxypyridin-4-yl)benzamide] was tested. Which Ki did it give?
A: 10 to 100 nM

Q: For CCOc1ccccc1-c1ccc(N2CCN(C(=O)N3CCc4cccc(C#N)c43)C[C@H]2CC)c(C(=O)NC2CN(C)C2)n1 [Compound 1-414, 3-[(2R)-4-(7-cyano-2,3-dihydro-1H-indole-1-carbonyl)-2-ethylpiperazin-1-yl]-6-(2-ethoxyphenyl)-N-(1-methylazetidin-3-yl)pyridine-2-carboxamide], which Ki is on record?
A: < 10 nM

Q: For CCOc1ncccc1-c1ccc(N2CCN(C(=O)c3ccc(Cl)cc3C(F)(F)F)C[C@H]2CC)c(C(=O)NCC2=NCCN2)c1 [Compound 1-125, 2-[(2R)-4-[4-chloro-2-(trifluoromethyl)benzoyl]-2-ethylpiperazin-1-yl]-N-[(4,5-dihydro-1H-imidazol-2-yl)methyl]-5-(2-ethoxypyridin-3-yl)benzamide], which Ki is on record?
A: < 10 nM

Q: How did the Ki turn out when CCOc1ccc(C(=O)N2CCN(c3ccc(-c4cccnc4OCC)c(F)c3C(=O)NCCNC)[C@H](CC)C2)c(C(F)(F)F)n1 [Compound 1-165, 6-[(2R)-4-[6-ethoxy-2-(trifluoromethyl)pyridine-3-carbonyl]-2-ethylpiperazin-1-yl]-3-(2-ethoxypyridin-3-yl)-2-fluoro-N-[2-(methylamino)ethyl]benzamide] was run?
A: < 10 nM

Q: With CC[C@@H]1CN(C(=O)c2ccc(C(F)(F)F)cc2Cl)CCN1c1ccc(-c2cccc(F)c2F)cc1C(=O)NCCN [Compound 1-1, N-(2-aminoethyl)-4-[(2R)-4-[2-chloro-4-(trifluoromethyl)benzoyl]-2-ethylpiperazin-1-yl]-2′,3′-difluoro-[1,1′-biphenyl]-3-carboxamide] as the compound, how does the Ki read?
A: 10 to 100 nM

Q: How did the Ki turn out when CCOc1ncccc1-c1ccc(N2CCN(C(=O)c3ccc(Cl)cc3C(F)(F)F)C[C@H]2CC)c(C(=O)NCCNC)c1F [Compound 1-95, 6-[(2R)-4-[4-chloro-2-(trifluoromethyl)benzoyl]-2-ethylpiperazin-1-yl]-3-(2-ethoxypyridin-3-yl)-2-fluoro-N-[2-(methylamino)ethyl]benzamide] was run?
A: < 10 nM

Q: How did the Ki turn out when CCOc1ncccc1-c1ccc(N2CCN(C(=O)c3ccc(Cl)cc3C(F)(F)F)C[C@H]2CC)c(CNC)n1 [Compound 2-16, ({5-[(2R)-4-[4-chloro-2-(trifluoromethyl)benzoyl]-2-ethylpiperazin-1-yl]-2′-ethoxy-[2,3′-bipyridin]-6-yl}methyl)(methyl)amine] was run?
A: < 10 nM

Q: How did the Ki turn out when CCOc1ncccc1-c1ccc(N2CCN(C(=O)c3ccc(Cl)cc3C(F)F)C[C@H]2CC)c(C(=O)NCCNC)c1F [Compound 1-183, 6-[(2R)-4-[4-chloro-2-(difluoromethyl)benzoyl]-2-ethylpiperazin-1-yl]-3-(2-ethoxypyridin-3-yl)-2-fluoro-N-[2-(methylamino)ethyl]benzamide] was run?
A: < 10 nM

Q: Which Ki does the source give for CCOc1ncccc1-c1ccc(N2CCN(C(=O)c3ccc(Cl)cc3C(F)(F)F)C[C@H]2CC)c(C(=O)N[C@@H]2CNC[C@H]2F)n1 [Compound 1-276, 5-[(2R)-4-[4-chloro-2-(trifluoromethyl)benzoyl]-2-ethylpiperazin-1-yl]-2′-ethoxy-N-[(3R,4R)-4-fluoropyrrolidin-3-yl]-[2,3′-bipyridine]-6-carboxamide] here?
A: < 10 nM

Q: CCOc1ncccc1-c1ccc(N2CCN(C(=O)c3ccc(C)cc3N3CC[C@H](N(C)C)C3)C[C@H]2CC)c(C(=O)NCCN)c1 [Compound 1-68, N-(2-aminoethyl)-2-[(2R)-4-{2-[(3S)-3-(dimethylamino)pyrrolidin-1-yl]-4-methylbenzoyl}-2-ethylpiperazin-1-yl]-5-(2-ethoxypyridin-3-yl)benzamide] was tested. Which Ki did it give?
A: < 10 nM

Q: Which Ki does the source give for CCOc1ccccc1-c1ccc(N2CCN(C(=O)n3ccc4cccc(Cl)c43)C[C@H]2CC)c(C(=O)N[C@@H]2CCN(C)C2)n1 [Compound 1-431, 3-[(2R)-4-(7-chloro-1H-indole-1-carbonyl)-2-ethylpiperazin-1-yl]-6-(2-ethoxyphenyl)-N-[(3R)-1-methylpyrrolidin-3-yl]pyridine-2-carboxamide] here?
A: < 10 nM

Q: Which Ki does the source give for CCOc1ccc(C(=O)N2CCN(c3ccc(-c4cccnc4OCC)nc3CN)[C@H](CC)C2)c(C(F)(F)F)n1 [Compound 2-30] here?
A: < 10 nM

Q: How did the Ki turn out when CCOc1ncccc1-c1ccc(N2CCN(C(=O)C34CCC(C(F)(F)F)(CC3)CC4)C[C@H]2CC)c(C(=O)N[C@@H]2CCN(C)C2)n1 [Compound 1-282, 2′-ethoxy-5-[(2R)-2-ethyl-4-[4-(trifluoromethyl)bicyclo[2.2.2]octane-1-carbonyl]piperazin-1-yl]-N-[(3R)-1-methylpyrrolidin-3-yl]-[2,3′-bipyridine]-6-carboxamide] was run?
A: < 10 nM

Q: Which Ki does the source give for CCOc1ncccc1-c1ccc(N2CCN(C(=O)c3ccc(Cl)cc3C(F)(F)F)C[C@H]2CC)c(C(=O)NCCc2nccn2C)n1 [Compound 1-234, 5-[(2R)-4-[4-chloro-2-(trifluoromethyl)benzoyl]-2-ethylpiperazin-1-yl]-2′-ethoxy-N-[2-(1-methyl-1H-imidazol-2-yl)ethyl]-[2,3′-bipyridine]-6-carboxamide] here?
A: < 10 nM

Q: With CC[C@@H]1CN(C(=O)N2CCC[C@H]2C(C)(C)C)CCN1c1ccc(-c2ccccc2OC)nc1C(=O)N[C@@H]1CCNC1 [Compound 1-315, 3-[(2R)-4-[(2S)-2-tert-butylpyrrolidine-1-carbonyl]-2-ethylpiperazin-1-yl]-6-(2-methoxyphenyl)-N-[(3R)-pyrrolidin-3-yl]pyridine-2-carboxamide] as the compound, how does the Ki read?
A: < 10 nM
